In PMC3745031 (Bioorganic & medicinal chemistry letters, 2012):
pIC50: −log10 of the molar value.

Legend:
HDAC1, HDAC3, and HDAC6 = assay: Isoform preference across HDAC1, HDAC3 and HDAC6; format: biochemical
[1] = test system: HDAC activity of HeLa cell lysates; conditions: ref 16b, cited from earlier work
[2] = test system: HDAC activity of HeLa cell lysates

In the case of `CC(CCCCC(=O)NO)CC(=O)Nc1ccccc1` (stereo not shown) [2a], the “isoform preference in single-concentration screen” value (from here on “isoform preference”) (HDAC1, HDAC3, and HDAC6; 500 nM) was “modest dual-preference for HDAC1 and HDAC3 over HDAC6”.

In the case of `O=C(CC(CCCCC(=O)Nc1ccccc1)c1ccccc1)NO` (stereo not shown) [C3-phenyl SAHA variant], the pIC50 ([1]; read-out: IC50, HDAC inhibition) is listed as 4.14 and the “fold reduced activity versus SAHA” value [1] is listed as 811 fold.

For `CCCCC(CC)CC(CCCCC(=O)NO)CC(=O)Nc1ccccc1` (stereo not shown) [2d], the “isoform preference” value (HDAC1, HDAC3, and HDAC6; 500 nM) was “preference for HDAC3 over HDAC1 and HDAC6”.

In the case of `CC(C)(C)C(CCCCC(=O)NO)CC(=O)Nc1ccccc1` (stereo not shown) [2c], the “isoform preference” value (HDAC1, HDAC3, and HDAC6; 2 µM) was “preference for HDAC1 and HDAC6 over HDAC3” and the “fold reduced potency compared to SAHA” value [2] was 20 fold.

For `O=C(CCCCC(CC(=O)Nc1ccccc1)c1ccccc1)NO` (stereo not shown) [2b], the “isoform preference” value (HDAC1, HDAC3, and HDAC6; 500 nM) was “similarly inhibited HDAC1, HDAC3, and HDAC6”.
